Here are results for 21 molecules from US20100130408A1, “USE OF MODIFIED CYCLOSPORINS” (priority 2006, published 2010).

Test [1] addresses T1, human recombinant cyclophilin (Homo sapiens, UniProt P62937). Description: competitive ELISA, cyclophilin on coated BSA-cyclosporin A, reference cyclosporin A. Conditions: scale: log10. For orientation: ELISA stands for enzyme-linked immunosorbent assay.
Test [2] addresses T1, human recombinant cyclophilin. Description: competitive ELISA cyclophilin binding test (Binding Ratio). As to conditions: log to the base 10 of IC50 test compound / IC50 cyclosporin A. As for the experimental part: A cyclosporin is considered as binding to cyclophilin if it binds to human recombinant cyclophilin at least one fifth as well as does cyclosporin A in the competitive ELISA test described by Quesniaux in Eur. J. Immunol. 1987 17 1359-1365. In this test, the cyclosporin to be tested is added during the incubation of cyclophilin with coated BSA-cyclosporin A and the concentration required to give a 50% inhibition of the control reaction without competitor is calculated (IC50). The results are expressed as the Binding Ratio (BR), which is the log to the base 10 of the ratio of the IC50 of the test compound and the IC50 in a simultaneous test of cyclosporin A itself.

The next test relates to Balb/c spleen cells. Description: Mixed Lymphocyte Reaction (MLR). The format is cell-based, mice. As to conditions: percentage of the activity relative to Cyclosporin A. As for the experimental part: A cyclosporin is considered to be non-immunosuppressive when it has an activity in the Mixed Lymphocyte Reaction (MLR) of no more than 5%, preferably no more than 2%, that of cyclosporin A. The Mixed Lymphocyte Reaction is described by T. Meo in “Immunological Methods”, L. Lefkovits and B. Peris, Eds., Academic Press, N.Y. pp. 227-239 (1979). Spleen cells (0.5×106) from Balb/c mice (female, 8-10 weeks) are co-incubated for 5 days with […] irradiated (2000 reds) or mitomycin C treated spleen cells from CBA mice (female, 8-10 weeks). The irradiated allogeneic cells induce a proliferative response in the Balb/c spleen cells which can be measured by labeled precursor incorporation into the DNA. […] The IC50 found for the test compound in the MLR is compared with that found for cyclosporin A in a parallel experiment. In addition, non-immunosuppressive cyclosporins lack the capacity of inhibiting CN and the downstream NF-AT pathway.

Another test deals with HSCs. As to conditions: cited from earlier work.
The test system of a further test is HCV. As to conditions: Watashi et al., Hepatology (2003); cited from earlier work.

T1 sequence (P62937 whole entry): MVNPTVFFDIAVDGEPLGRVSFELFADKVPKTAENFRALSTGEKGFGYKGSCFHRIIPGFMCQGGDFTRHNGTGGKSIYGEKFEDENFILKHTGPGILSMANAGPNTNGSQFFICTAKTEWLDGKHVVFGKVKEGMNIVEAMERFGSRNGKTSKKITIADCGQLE

As for “[8'-hydroxy-MeBmt]^1-Ciclosporin (peptide)”, in test [1], the Binding Ratio (BR) stood at 0.35.

For “[y-hydroxy-MeLeu]^9-Ciclosporin (peptide)”, the Binding Ratio (BR) in test [1] stood at 0.15.

For the molecule [Melle]^4-Ciclosporin, the “Binding Ratio (BR)” value in test [2] is −0.2. In addition, in the test with Balb/c spleen cells, the “IR = Immunosuppressive Ratio” value is below 1%.

“[dihydro-MeBmt]^1-[y-hydroxy-MeLeu]^4-Ciclosporin”: in test [2], the “Binding Ratio (BR)” value came out at 0.1. In the test with Balb/c spleen cells, the “IR = Immunosuppressive Ratio” value is listed as below 1%.

Regarding [MeVal]^4-Ciclosporin, in test [2], the “Binding Ratio (BR)” value was determined as 0.1. Moreover, the “IR = Immunosuppressive Ratio” value in the test with Balb/c spleen cells was below 1%.

Consider “[dihydro-MeBmt]^1-[y-hydroxy-MeLeu]^4-Ciclosporin (peptide)”, for which, in test [1], the Binding Ratio (BR) was found to be 0.1.

For [MeAla]^6-Ciclosporin, in test [2], the “Binding Ratio (BR)” value is −0.4. In addition, the “IR = Immunosuppressive Ratio” value in the test with Balb/c spleen cells is recorded as 3.2%.

As for “[y-hydroxy-MeLeu]^4-Ciclosporin (peptide)”, the Binding Ratio (BR) in test [1] was 0.4.

Take [y-hydroxy-MeLeu]^9-Ciclosporin: in test [2], the “Binding Ratio (BR)” value was 0.15. The “IR = Immunosuppressive Ratio” value in the test with Balb/c spleen cells came out at 2.9%.

Turning to [Ethyl-Val]^4-Ciclosporin (peptide), the Binding Ratio (BR) in test [1] was 0.

As to [MeVal]^5-Ciclosporin (peptide), in test [1], the Binding Ratio (BR) was found to be 0.4.

Consider [Ethyl-lle]^4-Ciclosporin, for which the “Binding Ratio (BR)” value in test [2] was 0.1. Besides, in the test with Balb/c spleen cells, the “IR = Immunosuppressive Ratio” value is recorded as below 2%.

With [Ethyl-lle]^4-Ciclosporin (peptide), the Binding Ratio (BR) in test [1] is 0.1.

As for [y-hydroxy-MeLeu]^4-Ciclosporin, in test [2], the “Binding Ratio (BR)” value is given as 0.4. Moreover, the “IR = Immunosuppressive Ratio” value with Balb/c spleen cells is recorded as below 1%.

For the molecule [Melle]^4-Ciclosporin (peptide), the Binding Ratio (BR) in test [1] is -0.2.

Turning to [MeVal]^5-Ciclosporin, the “Binding Ratio (BR)” value in test [2] is recorded as 0.4. In addition, the “IR = Immunosuppressive Ratio” value in the test with Balb/c spleen cells worked out at 5.3%.

In the case of `C=CC[C@@H]1/C=C(\C)C[C@H](C)C[C@H](OC)[C@H]2O[C@@](O)(C(=O)C(=O)N3CCCC[C@H]3C(=O)O[C@H](/C(C)=C/[C@@H]3CC[C@@H](O)[C@H](OC)C3)[C@H](C)[C@@H](O)CC1=O)[C@H](C)C[C@@H]2OC` [tacrolimus], the “reduction of collagen production” value with HSCs (12.5 nM (10 ng/ml), previously reported in Nakamuta et al) is listed as “does not significantly reduces collagen production”. The “cell growth and collagen production in HSCs” value in the test with HSCs (previous evaluation of immunosuppressive drugs) was “did not have such effects”. Also, the “replication of HCV in vitro” value in the test on HCV is listed as “did not show this effect”.

As for [Ethyl-Val]^4-Ciclosporin, in test [2], the “Binding Ratio (BR)” value amounted to 0. Further, the “IR = Immunosuppressive Ratio” value with Balb/c spleen cells is below 2%.

In the case of [8′-hydroxy-MeBmt]^1-Ciclosporin, in test [2], the “Binding Ratio (BR)” value worked out at 0.35. For the same molecule, the “IR = Immunosuppressive Ratio” value with Balb/c spleen cells came to 1.8%.

For [MeVal]^4-Ciclosporin (peptide), the Binding Ratio (BR) in test [1] came to 0.1.

As to [MeAla]^6-Ciclosporin (peptide), in test [1], the Binding Ratio (BR) was -0.4.
